Data reported in DBAASP.
Values after ≈ are worked out from the molar mass of the structure shown. Values joined by “and” are separate entries in the source; they are usually repeats but may differ in a detail not shown here. Equal entries are not always repeated.

Legend:
Assay in all cases: ≥ marks a high value that may be exact or a test limit, other limits are often not marked, values filed in µg/mL are converted to µM
[1] = system: Escherichia coli ATCC 25922
[2] = system: Staphylococcus aureus ATCC 25923
[3] = system: Staphylococcus aureus ATCC 29213
[4] = system: Pseudomonas aeruginosa ATCC 27853

CC[C@H](C)[C@H](NC(=O)[C@H](CCCN=C(N)N)NC(=O)[C@H](CCCCN)NC(=O)[C@H](CC(C)C)NC(=O)[C@H](CC(C)C)NC(=O)[C@H](C)N)C(=O)N[C@@H](CCCCN)C(=O)N[C@H](C(=O)N[C@@H](CC(C)C)C(=O)N[C@@H](CC(C)C)C(N)=O)[C@@H](C)O [ALLKRIKTLL]
MIC [1]: > 18 µM | MIC [2]: > 18 µM

CC(C)C[C@H](NC(=O)[C@H](C)NC(=O)[C@H](Cc1ccc(O)cc1)NC(=O)[C@H](CC(C)C)NC(=O)[C@H](CCCN=C(N)N)NC(=O)[C@H](C)NC(=O)[C@H](CC(C)C)NC(=O)[C@H](CO)NC(=O)[C@H](C)NC(=O)[C@H](CC(C)C)NC(=O)[C@@H](N)CC(=O)O)C(=O)N[C@@H](C)C(=O)N[C@@H](CCCN=C(N)N)C(N)=O [DLASLARLYALAR]
MIC [1]: > 489 µM | MIC [3]: > 489 µM

CC(C)C[C@H](NC(=O)[C@H](CC(C)C)NC(=O)[C@H](CCCCN)NC(=O)[C@H](CCCCN)NC(=O)[C@H](C)NC(=O)[C@H](CC(C)C)NC(=O)[C@H](CCCCN)NC(=O)[C@H](CC(C)C)NC(=O)[C@@H](N)Cc1ccccc1)C(N)=O [FLKLAKKLL]
MIC [4]: 59.6 µM and 119 µM

CC[C@H](C)[C@H](NC(=O)CNC(=O)[C@@H](NC(=O)[C@H](CCCCN)NC(=O)[C@@H](NC(=O)[C@H](CCCCN)NC(=O)CN)C(C)C)[C@@H](C)CC)C(=O)N[C@@H](CC(N)=O)C(=O)NCC(=O)N[C@@H](Cc1ccccc1)C(=O)NCC(=O)N[C@@H](CCCN=C(N)N)C(=O)N[C@H](C(=O)NCC(=O)N[C@@H](CCCN=C(N)N)C(=O)N[C@@H](CC(C)C)C(=O)N[C@H](C(=O)N[C@@H](C)C(=O)O)C(C)C)[C@@H](C)CC [GKVKIGINGFGRIGRLVA]
MIC [1]: 69 µM (≈ 128 µg/mL) | MIC [2]: 276 µM (≈ 512 µg/mL)

CC[C@H](C)[C@H](NC(=O)[C@H](CCCN=C(N)N)NC(=O)[C@H](CCCCN)NC(=O)[C@H](CC(C)C)NC(=O)[C@H](CC(C)C)NC(=O)CN)C(=O)N[C@@H](CCCCN)C(=O)N[C@@H](C)C(=O)N[C@@H](CC(C)C)C(=O)N[C@@H](CC(C)C)C(N)=O [GLLKRIKALL]
MIC [1]: 14.2 µM (≈ 16 µg/mL) | MIC [2]: 7.11 µM (≈ 7.99 µg/mL)

CC[C@H](C)[C@H](NC(=O)[C@H](C)NC(=O)[C@@H](NC(=O)[C@H](C)NC(=O)[C@H](CCCCN)NC(=O)[C@H](C)NC(=O)[C@H](CC(C)C)NC(=O)[C@H](CCCCN)NC(=O)CNC(=O)[C@H](CC(C)C)NC(=O)[C@@H](NC(=O)[C@H](CO)NC(=O)CNC(=O)[C@H](C)NC(=O)[C@@H](NC(=O)[C@H](CO)NC(=O)[C@H](C)NC(=O)[C@H](CCSC)NC(=O)CN)[C@@H](C)O)C(C)C)C(C)C)C(=O)NCC(=O)N[C@@H](C)C(=O)N[C@@H](CC(C)C)C(N)=O [GMASTAGSVLGKLAKAVAIGAL]
MIC [1]: > 200 µM | MIC [2]: > 200 µM

CC(C)C[C@H](NC(=O)[C@H](CCCCN)NC(=O)[C@H](C)NC(=O)[C@H](CC(C)C)NC(=O)[C@H](CCCCN)NC(=O)[C@H](CCCCN)NC(=O)[C@H](C)NC(=O)[C@H](CC(C)C)NC(=O)[C@H](CCCCN)NC(=O)[C@H](C)NC(=O)[C@H](CC(C)C)NC(=O)[C@H](CCCCN)NC(=O)[C@H](CCCCN)NC(=O)[C@H](C)NC(=O)[C@H](CC(C)C)NC(=O)[C@H](CCCCN)NC(=O)[C@H](C)NC(=O)[C@H](CC(C)C)NC(=O)[C@@H](N)CCCCN)C(=O)N[C@@H](C)C(=O)N[C@@H](CCCCN)C(N)=O [KLAKLAKKLAKLAKKLAKLAK]
MIC [4]: 4 µM (≈ 9.1 µg/mL) | MIC [1]: 4 µM (≈ 9.1 µg/mL) | MIC [2]: 4 µM (≈ 9.1 µg/mL)

CC(C)C[C@H](NC(=O)[C@H](CCCCN)NC(=O)[C@H](C)NC(=O)[C@H](CC(C)C)NC(=O)[C@@H](N)CCCCN)C(=O)N[C@@H](C)C(=O)N[C@@H](CCCCN)C(N)=O [KLAKLAK]
MIC [4]: > 95 µM | MIC [1]: > 95 µM | MIC [2]: > 95 µM

CC(C)[C@H](NC(=O)[C@H](CC(=O)O)NC(=O)[C@H](CO)NC(=O)[C@@H](N)CCCCN)C(=O)N[C@@H](CCCN=C(N)N)C(=O)N[C@@H](CCCN=C(N)N)C(=O)N[C@@H](Cc1c[nH]c2ccccc12)C(=O)N[C@@H](CCCN=C(N)N)C(=O)N[C@@H](CO)C(=O)N[C@@H](CCCN=C(N)N)C(=O)N[C@@H](Cc1ccc(O)cc1)C(N)=O [KSDVRRWRSRY]
MIC [4]: > 100 µM | MIC [1]: > 100 µM | MIC [2]: > 100 µM

CC[C@H](C)[C@H](NC(=O)[C@H](CC(C)C)NC(=O)[C@H](C)NC(=O)[C@@H]1CCCN1C(=O)[C@H](CC(C)C)NC(=O)CNC(=O)[C@@H](NC(=O)[C@@H](NC(=O)[C@H](CC(C)C)NC(=O)[C@@H](NC(=O)[C@H](CCCCN)NC(=O)[C@H](CCCCN)NC(=O)[C@H](C)NC(=O)[C@H](C)NC(=O)[C@H](CO)NC(=O)[C@@H](NC(=O)[C@H](CC(C)C)NC(=O)[C@H](CCCCN)NC(=O)[C@H](CCCCN)NC(=O)[C@@H](NC(=O)[C@H](Cc1ccccc1)NC(=O)[C@H](CCCCN)NC(=O)[C@H](CCCCN)NC(=O)[C@H](Cc1c[nH]c2ccccc12)NC(=O)[C@@H](N)CCCCN)[C@@H](C)CC)[C@@H](C)O)C(C)C)[C@@H](C)O)[C@@H](C)O)C(=O)N[C@@H](CO)C(=O)O [KWKKFIKKLTSAAKKVLTTGLPALIS]
MIC [4]: 4 µM (≈ 11.5 µg/mL)

CC(C)C[C@H](NC(=O)[C@H](Cc1c[nH]c2ccccc12)NC(=O)[C@H](C)NC(=O)CNC(=O)[C@H](Cc1c[nH]c2ccccc12)NC(=O)[C@H](CC(N)=O)NC(=O)[C@@H](N)CC(C)C)C(=O)N[C@@H](CCCCN)C(=O)N[C@@H](Cc1cnc[nH]1)C(=O)N[C@@H](Cc1c[nH]c2ccccc12)C(=O)N[C@@H](Cc1c[nH]c2ccccc12)C(=O)N[C@@H](CCCCN)C(=O)O [LNWGAWLKHWWK]
MIC [4]: 32 µM (≈ 52 µg/mL)

CC(C)C[C@H](NC(=O)[C@H](CCCN=C(N)N)NC(=O)[C@H](CCCN=C(N)N)NC(=O)[C@H](CC(C)C)NC(=O)[C@H](Cc1c[nH]c2ccccc12)NC(=O)[C@H](CCCN=C(N)N)NC(=O)[C@H](Cc1c[nH]c2ccccc12)NC(=O)[C@@H](NC(=O)[C@H](CCCCN)NC(=O)[C@H](CCCN=C(N)N)NC(=O)[C@@H](N)CC(C)C)C(C)C)C(N)=O [LRKVWRWLRRL]
MIC [2]: 10 µM (≈ 15.8 µg/mL)

CC[C@H](C)[C@@H]1NC(=O)[C@H](CCCCN)NC(=O)[C@@H]2CCCN2C(=O)[C@H](Cc2cnc[nH]2)NC(=O)CNC(=O)[C@@H]2CSSC[C@@H]3NC(=O)[C@H](CO)NC(=O)CNC(=O)CNC(=O)[C@H](Cc4ccc(O)cc4)NC(=O)[C@H](CO)NC(=O)[C@H](CCSC)NC(=O)[C@@H](NC(=O)[C@@H](NC(=O)[C@@H](NC(=O)[C@@H]4CCCN4C(=O)[C@H](CO)NC(=O)[C@H](CC(N)=O)NC(=O)[C@@H](NC(=O)[C@H](CC(C)C)NC(=O)[C@@H](N)CCC(N)=O)[C@@H](C)CC)C(C)C)[C@@H](C)O)CSSC[C@H](NC(=O)[C@H](CCCN=C(N)N)NC1=O)C(=O)N[C@H](C(=O)N[C@@H](CCCN=C(N)N)C(=O)N[C@@H](CCCN=C(N)N)C(=O)N[C@@H](CCCCN)C(=O)O)CSSC[C@H](NC(=O)[C@H](CO)NC(=O)[C@H](CCCN=C(N)N)NC(=O)[C@H](CCC(N)=O)NC3=O)C(=O)N[C@@H](CC(N)=O)C(=O)NCC(=O)NCC(=O)N[C@@H](Cc1ccccc1)C(=O)N[C@@H](CCCN=C(N)N)C(=O)N[C@@H](CC(C)C)C(=O)NCC(=O)NCC(=O)N[C@@H](Cc1cnc[nH]1)C(=O)N2 [QLINSPVTCMSYGGSCQRSCNGGFRLGGHCGHPKIRCCRRK]
MIC [1]: 4.48 µM (≈ 20 µg/mL)

CC(C)C[C@H](NC(=O)[C@H](CC(=O)O)NC(=O)[C@@H](NC(=O)[C@H](CCCCN)NC(=O)[C@H](CC(C)C)NC(=O)[C@@H](N)CCC(N)=O)C(C)C)C(=O)N[C@@H](Cc1c[nH]c2ccccc12)C(=O)NCC(=O)N[C@H](C(=O)N[C@@H](CCCN=C(N)N)C(N)=O)[C@@H](C)O [QLKVDLWGTR]
MIC [4]: > 100 µM | MIC [1]: > 100 µM | MIC [2]: > 100 µM

NC(=O)[C@H](Cc1c[nH]c2ccccc12)NC(=O)[C@H](CCCN=C(N)N)NC(=O)[C@H](Cc1ccc(O)cc1)NC(=O)[C@H](CCCN=C(N)N)NC(=O)[C@H](Cc1c[nH]c2ccccc12)NC(=O)[C@@H](N)CCCN=C(N)N [RWRYRW]
MIC [4]: 78.3 µM (≈ 79.9 µg/mL) | MIC [1]: 48.9 µM (≈ 50 µg/mL) | MIC [2]: 9.78 µM (≈ 9.99 µg/mL)

CC[C@H](C)[C@H](NC(=O)[C@H](Cc1ccc(O)cc1)NC(=O)[C@H](CCC(N)=O)NC(=O)[C@H](CC(C)C)NC(=O)[C@H](C)NC(=O)[C@H](CCCCN)NC(=O)[C@H](CCCCN)NC(=O)[C@H](CCSC)NC(=O)[C@H](CCCCN)NC(=O)[C@H](CCCCN)NC(=O)[C@H](CCCCN)NC(=O)[C@H](CCCN=C(N)N)NC(=O)[C@H](CCCN=C(N)N)NC(=O)[C@H](Cc1ccc(O)cc1)NC(=O)[C@@H](N)CCCN=C(N)N)C(=O)N[C@@H](CCCCN)C(=O)N[C@@H](CC(C)C)C(N)=O [RYRRKKKMKKALQYIKL]
MIC [4]: > 100 µM | MIC [1]: > 100 µM

CC(C)C[C@H](NC(=O)[C@H](C)NC(=O)[C@@H](N)CO)C(=O)N[C@H](C(=O)NCC(=O)N[C@H]1CSSC[C@@H](C(=O)N[C@@H](Cc2ccccc2)C(=O)NCC(=O)N[C@@H](CCCN=C(N)N)C(=O)O)NC(=O)[C@@H]2CCCN2C(=O)[C@H](CCCCN)NC(=O)[C@@H]2CCCN2C(=O)[C@@H]2CCCN2C(=O)[C@H](Cc2ccc(O)cc2)NC(=O)[C@H](CO)NC(=O)[C@H](CCCCN)NC(=O)[C@H]([C@@H](C)O)NC(=O)CNC1=O)C(C)C [SALVGCGTKSYPPKPCFGR]
MIC [2]: 12.7 µM (≈ 25 µg/mL)

CC(C)C[C@H](NC(=O)[C@H](Cc1ccccc1)NC(=O)[C@@H]1CCCN1C(=O)[C@H](Cc1ccc(O)cc1)NC(=O)[C@H](Cc1ccc(O)cc1)NC(=O)[C@H](Cc1c[nH]c2ccccc12)NC(=O)[C@@H]1CCCN1C(=O)[C@H](Cc1ccccc1)NC(=O)[C@H](CCCN=C(N)N)NC(=O)[C@H](CCCN=C(N)N)NC(=O)[C@@H](N)C(C)C)C(=O)N[C@@H](CCCN=C(N)N)C(=O)N[C@@H](CCCN=C(N)N)C(N)=O [VRRFPWYYPFLRR]
MIC [1]: 16 µM (≈ 29.7 µg/mL)

CSCC[C@H](NC(=O)[C@H](CCCN=C(N)N)NC(=O)[C@@H](N)Cc1ccc(O)cc1)C(=O)N[C@@H](Cc1c[nH]c2ccccc12)C(=O)N[C@@H](CCCN=C(N)N)C(=O)N[C@@H](Cc1c[nH]c2ccccc12)C(=O)N[C@@H](C)C(=O)N[C@@H](Cc1c[nH]c2ccccc12)C(=O)N[C@@H](CCCN=C(N)N)C(=O)N[C@@H](Cc1c[nH]c2ccccc12)C(=O)N[C@@H](CCCN=C(N)N)C(N)=O [YRMWRWAWRWR]
MIC [4]: 11.4 µM (≈ 20 µg/mL) | MIC [1]: 5.7 µM (≈ 9.99 µg/mL) | MIC [2]: 1.43 µM (≈ 2.5 µg/mL)
